According to ChEMBL document CHEMBL1629707, “Naphthalimide based novel organoselenocyanates: finding less toxic forms of selenium that would retain protective efficacy” (Bioorg Med Chem Lett, 2010):

How the values were obtained:
[1] = Induction of chromosomal aberration in Swiss albino mouse bone marrow cell at 1.2 mg/kg, po after 30 days (reference value: 14.88+/-0.99 %); format: organism-based; set-up: dose 1.2 mg/kg, route oral; settings: in vivo, 720 h
Mus musculus [2] = test: Increase of SOD level in Swiss albino mouse liver assessed per mg of protein at 1.2 mg/kg, po after 30 days (reference value: 250.16+/-7.46 U); format: functional
Mus musculus [3] = test: Increase of Gpx level in Swiss albino mouse liver assessed as NADPH oxidation per mg of protein at 1.2 mg/kg, po after 30 days (reference value: 0.646+/-0.030 umol); format: functional
Mus musculus [4] = test: Nephrotoxicity in Swiss albino mouse assessed as infiltration of mononuclear cells at 1.2 mg/kg after 30 days by histopathology analysis; format: toxicity, organism-based; set-up: dose 1.2 mg/kg; settings: in vivo, 720 h
Mus musculus [5] = test: Toxicity in Swiss albino mouse assessed as hemoglobin level at 1.2 mg/kg, po after 30 days (reference value: 12.56+/-0.43 gm/dL); format: organism-based; set-up: dose 1.2 mg/kg, route oral; settings: in vivo, 720 h
Mus musculus [6] = test: Nephrotoxicity in Swiss albino mouse assessed as serum creatinine level at 1.2 mg/kg, po after 30 days (reference value: 9.40+/-0.48 mg/dL); format: toxicity, organism-based; set-up: dose 1.2 mg/kg, route oral; settings: in vivo, 720 h
Mus musculus [7] = test: Increase of CAT level in Swiss albino mouse liver assessed per mg of protein at 1.2 mg/kg, po after 30 days (reference value: 41.66+/-1.33 U); format: functional
Mus musculus [8] = test: Increase of GSH level in Swiss albino mouse liver assessed per mg of protein at 1.2 mg/kg, po after 30 days (reference value: 46.87+/-1.88 nmol); format: functional
Mus musculus [9] = test: Hepatotoxicity in Swiss albino mouse assessed as infiltration of mononuclear cells at 1.2 mg/kg after 30 days by histopathology analysis; format: toxicity, organism-based; set-up: dose 1.2 mg/kg; settings: in vivo, 720 h
Mus musculus [10] = test: Nephrotoxicity in Swiss albino mouse assessed as BUN level at 1.2 mg/kg, po after 30 days (reference value: 21.57+/-0.92 mg/dL); format: toxicity, organism-based; set-up: dose 1.2 mg/kg, route oral; settings: in vivo, 720 h
Mus musculus [11] = test: Hepatotoxicity in Swiss albino mouse assessed as plasma ALT level at 1.2 mg/kg, po after 30 days (reference value: 66.00+/-4.18 U/mL); format: toxicity, organism-based; set-up: dose 1.2 mg/kg, route oral; settings: in vivo, 720 h
Mus musculus [12] = test: Hepatotoxicity in Swiss albino mouse assessed as plasma AST level at 1.2 mg/kg, po after 30 days (reference value: 179.00+/-4.18 U/mL); format: toxicity, organism-based; set-up: dose 1.2 mg/kg, route oral; settings: in vivo, 720 h
Mus musculus [13] = test: Hepatotoxicity in Swiss albino mouse assessed as TBARS production per mg of protein at 1.2 mg/kg, po after 30 days (reference value: 0.26+/-0.02 nmol); format: toxicity, organism-based; set-up: dose 1.2 mg/kg, route oral; settings: in vivo, 720 h
Mus musculus [14] = test: Increase of GST level in Swiss albino mouse liver assessed as CDNB-GSH conjugate per mg of protein at 1.2 mg/kg, po after 30 days (reference value: 95.66+/-4.0 nmol/min); format: functional
Mus musculus [15] = test: Increase of TRxR level in Swiss albino mouse liver assessed per mg of protein at 1.2 mg/kg, po after 30 days (reference value: 3.20+/-0.134 U); format: functional
[16] = Toxicity in po dosed Swiss albino mouse; format: organism-based; settings: in vivo
Mus musculus [17] = test: Increase of SOD level in Swiss albino mouse liver assessed per mg of protein at 3 mg/kg, po after 30 days (reference value: 250.16+/-7.46 U); format: functional
Mus musculus [18] = test: Toxicity in Swiss albino mouse assessed as loss of body weight at 3 mg/kg, po administered for 30 days; format: organism-based; set-up: dose 3 mg/kg, route oral; settings: in vivo, 720 h
Mus musculus [19] = test: Hepatotoxicity in Swiss albino mouse assessed as TBARS production per mg of protein at 3 mg/kg, po after 30 days (reference value: 0.26+/-0.02 nmol); format: toxicity, organism-based; set-up: dose 3 mg/kg, route oral; settings: in vivo, 720 h
Mus musculus [20] = test: Increase of TRxR level in Swiss albino mouse liver assessed per mg of protein at 3 mg/kg, po after 30 days (reference value: 3.20+/-0.134 U); format: functional
Mus musculus [21] = test: Increase of GST level in Swiss albino mouse liver assessed as CDNB-GSH conjugate per mg of protein at 3 mg/kg, po after 30 days (reference value: 95.66+/-4.0 nmol/min); format: functional
Mus musculus [22] = test: Toxicity in Swiss albino mouse assessed as decrease in final body weight at 1.2 mg/kg, po administered for 30 days; format: organism-based; set-up: dose 1.2 mg/kg, route oral; settings: in vivo, 720 h
Mus musculus [23] = test: Increase of Gpx level in Swiss albino mouse liver assessed as NADPH oxidation per mg of protein at 3 mg/kg, po after 30 days (reference value: 0.646+/-0.030 umol); format: functional
Mus musculus [24] = test: Increase of GSH level in Swiss albino mouse liver assessed per mg of protein at 3 mg/kg, po after 30 days (reference value: 46.87+/-1.88 nmol); format: functional
Mus musculus [25] = test: Increase of CAT level in Swiss albino mouse liver assessed per mg of protein at 3 mg/kg, po after 30 days (reference value: 41.66+/-1.33 U); format: functional
Mus musculus [26] = test: Hepatotoxicity in Swiss albino mouse assessed as plasma AST level at 3 mg/kg, po after 30 days (reference value: 179.00+/-4.18 U/mL); format: toxicity, organism-based; set-up: dose 3 mg/kg, route oral; settings: in vivo, 720 h
Mus musculus [27] = test: Toxicity in Swiss albino mouse assessed as hemoglobin level at 3 mg/kg, po after 30 days (reference value: 12.56+/-0.43 gm/dL); format: organism-based; set-up: dose 3 mg/kg, route oral; settings: in vivo, 720 h
[28] = Induction of chromosomal aberration in Swiss albino mouse bone marrow cell at 3 mg/kg, po after 30 days (reference value: 14.88+/-0.99 %); format: organism-based; set-up: dose 3 mg/kg, route oral; settings: in vivo, 720 h
Mus musculus [29] = test: Nephrotoxicity in Swiss albino mouse assessed as serum creatinine level at 3 mg/kg, po after 30 days (reference value: 9.40+/-0.48 mg/dL); format: toxicity, organism-based; set-up: dose 3 mg/kg, route oral; settings: in vivo, 720 h
Mus musculus [30] = test: Hepatotoxicity in Swiss albino mouse assessed as plasma ALT level at 3 mg/kg, po after 30 days (reference value: 66.00+/-4.18 U/mL); format: toxicity, organism-based; set-up: dose 3 mg/kg, route oral; settings: in vivo, 720 h
Mus musculus [31] = test: Nephrotoxicity in Swiss albino mouse assessed as BUN level at 3 mg/kg, po after 30 days (reference value: 21.57+/-0.92 mg/dL); format: toxicity, organism-based; set-up: dose 3 mg/kg, route oral; settings: in vivo, 720 h
Mus musculus [32] = test: Nephrotoxicity in Swiss albino mouse assessed as necrosis at 3 mg/kg, po after 30 days by histopathology analysis; format: toxicity, organism-based; set-up: dose 3 mg/kg, route oral; settings: in vivo, 720 h
Mus musculus [33] = test: Nephrotoxicity in Swiss albino mouse assessed as lesion at 3 mg/kg, po after 30 days by histopathology analysis; format: toxicity, organism-based; set-up: dose 3 mg/kg, route oral; settings: in vivo, 720 h
Mus musculus [34] = test: Hepatotoxicity in Swiss albino mouse assessed as inflammation at 3 mg/kg, po after 30 days by histopathology analysis; format: toxicity, organism-based; set-up: dose 3 mg/kg, route oral; settings: in vivo, 720 h
Mus musculus [35] = test: Increase of Gpx level in Swiss albino mouse liver assessed as NADPH oxidation per mg of protein at 3 mg/kg, po after 30 days relative to control; format: functional
Mus musculus [36] = test: Increase of TRxR level in Swiss albino mouse liver assessed per mg of protein at 3 mg/kg, po after 30 days relative to control; format: functional
Mus musculus [37] = test: Hepatotoxicity in Swiss albino mouse assessed as lesion at 3 mg/kg, po after 30 days by histopathology analysis; format: toxicity, organism-based; set-up: dose 3 mg/kg, route oral; settings: in vivo, 720 h
Mus musculus [38] = test: Nephrotoxicity in Swiss albino mouse assessed as inflammation at 3 mg/kg, po after 30 days by histopathology analysis; format: toxicity, organism-based; set-up: dose 3 mg/kg, route oral; settings: in vivo, 720 h
Mus musculus [39] = test: Hepatotoxicity in Swiss albino mouse assessed as necrosis at 3 mg/kg, po after 30 days by histopathology analysis; format: toxicity, organism-based; set-up: dose 3 mg/kg, route oral; settings: in vivo, 720 h

Row | Compound | LD50 [16] | Activity (Mus musculus [17]) | Activity (Mus musculus [18]) | Activity (Mus musculus [19]) | Activity (Mus musculus [20]) | Activity (Mus musculus [21]) | Activity (Mus musculus [22]) | Activity (Mus musculus [23]) | Activity (Mus musculus [24]) | Activity (Mus musculus [25]) | Activity (Mus musculus [26]) | Activity (Mus musculus [27]) | Activity [28] | Activity (Mus musculus [29]) | Activity (Mus musculus [30]) | Activity (Mus musculus [31]) | other results
1 | O=[Se]([O-])[O-].[Na+].[Na+] [SODIUM SELENITE] | 25 mg/kg |  |  |  |  |  |  |  |  |  |  |  |  |  |  |  | Activity [1]: 16.4%; Activity (Mus musculus [2]): 236.98 U; Activity (Mus musculus [3]): 0.692 U; Activity (Mus musculus [4]): Toxic; Activity (Mus musculus [5]): 11.28 g/dL; Activity (Mus musculus [6]): 8.47 mg/dL; Activity (Mus musculus [7]): 36.6 U; Activity (Mus musculus [8]): 44.84 nM; Activity (Mus musculus [9]): Toxic; Activity (Mus musculus [10]): 22.6 mg/dL; Activity (Mus musculus [11]): 72 U/ml; Activity (Mus musculus [12]): 191 U/ml; Activity (Mus musculus [13]): 0.3 nM; Activity (Mus musculus [14]): 85.31 nM; Activity (Mus musculus [15]): 3.75 U
2 | N#C[Se]CCCCCN1C(=O)c2cccc3cc([N+](=O)[O-])cc(c23)C1=O | > 1000 mg/kg | 267.68 U | Non-toxic | 0.25 nM | 4.15 U | 97.29 nM | Toxic | 0.938 U | 55.82 nM | 44.06 U | 154 U/ml | 12.76 g/dL | 13.85% | 7.86 mg/dL | 62 U/ml |  | 
3 | N#C[Se]CCCCCN1C(=O)c2cccc3c(N)ccc(c23)C1=O | > 1000 mg/kg | 296.03 U | Non-toxic | 0.22 nM |  | 116.19 nM | Toxic |  | 60.4 nM | 53.04 U | 148 U/ml | 13.24 g/dL | 12.7% | 7.13 mg/dL | 59 U/ml | 148 mg/dL | Activity (Mus musculus [32]): Non-toxic; Activity (Mus musculus [33]): Non-toxic; Activity (Mus musculus [34]): Non-toxic; Activity (Mus musculus [35]): 63.77%; Activity (Mus musculus [36]): 53.43%; Activity (Mus musculus [37]): Non-toxic; Activity (Mus musculus [38]): Non-toxic; Activity (Mus musculus [39]): Non-toxic
4 | N#C[Se]CCCCCN1C(=O)c2cccc3c(Cl)ccc(c23)C1=O | > 1000 mg/kg | 268.71 U | Non-toxic | 0.26 nM | 4.21 U | 106.58 nM | Toxic | 0.995 U | 59.34 nM | 46.6 U | 142 U/ml | 12.86 g/dL | 13.97% | 7.45 mg/dL | 64 U/ml | 142 mg/dL | 
5 | N#C[Se]CCCCCN1C(=O)c2cccc3cccc(c23)C1=O | > 1000 mg/kg | 258.56 U | Non-toxic | 0.24 nM | 4.61 U | 104.41 nM | Toxic | 0.864 U | 50.94 nM | 45.48 U | 160 U/ml | 13.08 g/dL | 13.39% | 6.4 mg/dL | 61 U/ml | 160 mg/dL | 
